Reference: PubChem BioAssay (NCI)
Values joined by “and” are separate entries in the source; they are usually repeats but may differ in a detail not shown here. Equal entries are not always repeated.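 Five compound concentrations were applied to cells in 96-well plates for 48 hours; endpoints were derived by simple linear interpolation of the resulting dose-response curve. The concentration for 50% growth inhibition is given as GI50. The concentration for full growth arrest is given as TGI.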

Experiments:
Assay in all cases: NCI anticancer screen, dose series, 48 h
[1] = tested on: U251 CNS
[2] = tested on: CCRF-CEM leukemia
[3] = tested on: ACHN renal
[4] = tested on: K-562 leukemia
[5] = tested on: NCI-H23 lung
[6] = tested on: A549 NSCLC
[7] = tested on: SF-268 CNS
[8] = tested on: HS 578T breast
[9] = tested on: OVCAR-8 ovarian
[10] = tested on: HCT-15 colon

| SMILES | GI50 [1] [µM] | TGI [1] | GI50 [2] [µM] | TGI [2] [µM] | GI50 [3] [µM] | TGI [3] | GI50 [4] [µM] | TGI [4] [µM] | GI50 [5] [µM] | TGI [5] | GI50 [6] [µM] | TGI [6] | GI50 [7] [µM] | TGI [7] | GI50 [8] [µM] | TGI [8] | GI50 [9] [µM] | TGI [9] | GI50 [10] [µM] | TGI [10] |
| --- | --- | --- | --- | --- | --- | --- | --- | --- | --- | --- | --- | --- | --- | --- | --- | --- | --- | --- | --- | --- |
| Cc1cc(S(=O)(=O)Nc2nc3ccsc3c(=O)n2Cc2ccccc2)c(S)cc1Cl | 35.9 | > 100 µM | 34 | > 100 | 57.5 | > 100 µM | 67.9 | > 100 | 24.9 | 57.5 µM | 34.5 | > 100 µM | 30.6 | > 100 µM | 42.3 | > 100 µM | 44.5 | > 100 µM | 74.5 | > 100 µM |
| C#CCOc1cccc(Nc2ncnc3c2ncn3C2CCN(C(=O)CCl)C2)c1 (centres undefined) | 18.1 | 35.1 µM | 4.18 | 26.3 | 17.7 | 31.8 µM | 25.7 | > 100 | 18.4 | 41.3 µM | > 100 | > 100 µM | 17.7 | 38.2 µM | 24.7 | 91.5 µM | 30.7 | > 100 µM | 16.5 | 39.6 µM |
| OCCCCC#Cc1ccccc1C#Cc1cccs1 | 13.9 | 27 µM | 2.29 | 11.5 | 15.5 | 28.8 µM | 20.3 | 70.6 | 14.2 | 30.9 µM | 17.4 | 31.1 µM | 15.8 | 32 µM | 14.9 | 39.1 µM | 16.4 | 31.2 µM | 13.1 | 26.5 µM |
| O=C(Nc1ccc([N+](=O)[O-])cc1)c1cc2ccccc2cc1O | 0.36 | 13.1 µM | 0.754 | > 100 | 0.38 | 16.8 µM | 0.347 | > 100 | 0.294 | 1.42 µM | 0.454 | > 21.5 µM | 0.515 | 15.2 µM | 0.618 | > 100 µM | 0.425 | 12.6 µM | 0.365 | 5.07 µM |
| CN1CCN(c2ccc([N+](=O)[O-])c3no[n+]([O-])c23)CC1 | 0.189 | 1.41 µM and 0.618 µM | – | 0.582 | 0.158 | 0.787 µM and 0.954 µM | 0.11 | 0.979 | 0.173 | 0.389 µM and 1.02 µM | 0.385 | 3.53 µM and 2.06 µM | 0.198 | 0.68 µM and 1.12 µM | 0.228 | 2.41 µM and 1.93 µM | 0.145 | 1.75 µM and 0.34 µM | 0.227 | 2.15 µM and 1.21 µM |
| CCOC(=O)c1cn2ncnc(Oc3ccc(NC(=O)NCCN(CC)CC)c(Cl)c3)c2c1C | 2.38 | 6.24 µM | 2.33 | 6.73 | 2.31 | 5.54 µM | 2.01 | 4.48 | 10.4 | 26 µM | 15.8 | 40.2 µM | 2.28 | 6.58 µM | 3.88 | 21.7 µM | 5.66 | > 100 µM | 1.84 | 4.07 µM |
| C=C(C)C(=O)N1c2ccc(OC)cc2CC1C(=O)OCC (centres undefined) | – | > 100 µM | – | > 100 | – | > 100 µM | – | > 100 | – | > 100 µM | – | > 100 µM | – | > 100 µM | – | > 100 µM | – | > 100 µM | – | > 100 µM |
| O=C1C(Cl)=C(Nc2ccc3c(c2NC2=C(Cl)C(=O)c4ccccc4C2=O)C(=O)c2ccccc2C3=O)C(=O)c2ccccc21 | 2.58 | 9.38 µM | 2.48 | 24.7 | 2.15 | 9.05 µM | 2.75 | 7.81 | 1.08 | 4.1 µM | 1.95 | 4.61 µM | 2.91 | 12.9 µM | 2.1 | 6.88 µM | 2.72 | 9.6 µM | 1.62 | 4.19 µM |
| O=C(Nn1c2c(sc1=NC1CC1)C(=O)c1ccccc1C2=O)c1cc2ccc1CCc1ccc(cc1)CC2 | 2.41 | 11.1 µM | 2.53 | > 100 | 1.39 | 3.03 µM | 2.43 | > 100 | 1.31 | 4.32 µM | 2.42 | 6.07 µM | 2.54 | 11 µM | 2.09 | 6.03 µM | 2.62 | 11.6 µM | 1.51 | 3.24 µM |
| O=C1c2c(O)cccc2C(C(=O)CCCC(=O)C2c3cccc(O)c3C(=O)c3c(O)cccc32)c2cccc(O)c21 | – | 1.88 µM | – | 8.02 | – | 1.02 µM | – | 4.86 | – | 1.13 µM | – | 1.64 µM | – | 3.39 µM | – | 0.202 µM | – | 2.77 µM | – | 1.38 µM |
| CCCCCCCCCCC(CN(CC)CC)C(O)c1ccccc1 (centres undefined) | 1.86 | 3.56 µM | 1.82 | 4.89 | 1.61 | 3.07 µM | 2.03 | 4.67 | 1.93 | 3.74 µM | 2.49 | 5.41 µM | 1.94 | 3.87 µM | 1.75 | 4.07 µM | 2.37 | 5.83 µM | 1.31 | 2.77 µM |
| c1cc(-c2cnn3nc(N4CCOCC4)ccc23)nc(NC2CC2)n1 | 6.97 | > 25 µM | 4.95 | > 25 | 5.7 | > 25 µM | > 23.6 | > 25 | 7.19 | > 25 µM | 7.87 | > 25 µM | 8.14 | 24.6 µM | 8.12 | > 22.8 µM | 7.9 | > 25 µM | 8.66 | > 25 µM |
| COc1ccc(Cn2cc3c(c2-c2ccccc2)CCc2cncnc2-3)cc1 | 5.47 | 18 µM | 3.99 | 18.3 | 11.3 | 35.8 µM | 2.75 | 11.3 | 10.6 | 39.3 µM | 3.55 | 14.1 µM | 9.63 | 22.2 µM | 1.58 | 6.51 µM | 7.76 | 23.7 µM | 4.3 | 16.5 µM |
| CCN1CCN(c2nc(C)cc(N(CCCNc3ccnc4cc(Cl)ccc34)Cc3ccco3)n2)CC1 | 2.41 | 6.26 µM | 3.51 | 12.2 | 2.58 | 6.99 µM | 2.3 | 10.4 | 9.9 | 27 µM | 4.51 | 16.5 µM | 4.31 | 20.6 µM | 2.87 | 9.97 µM | 4.08 | 19.5 µM | 2.34 | 11.6 µM |
